# Assay results: US9980943B2, “Methods of treating muscular dystrophy” (BOARD OF REGENTS OF THE NEVADA SYSTEM OF HIGHER EDUCATION, …, priority 2013, dated 2018)
# Columns and labels:
# Format in all cases: cell-based, mouse
# [1] = test system: α7 integrin (LacZ reporter in α7βgal+/− myoblasts); experiment: Myoblast α7+/LacZ integrin FDG assay (Burkin assay in myoblasts, 96-well); conditions: α7+/LacZ myoblasts, 96-well; for fold induction at 0.5 µM / fold induction at 1 µM / fold induction at 5 µM / fold induction at 10 µM / fold induction at 20 µM / fold induction at 40 µM: Mus musculus, Myoblast, 48 h, read-out: Burkin Assay in Myoblasts, signal relative to DMSO
# [2] = test system: α7 integrin (LacZ reporter in α7+/LacZ myotubes); experiment: Myotube α7 integrin FDG assay (Burkin assay in myotubes, 96-well); conditions: myotubes; for fold induction at 0.5 µM / fold induction at 1 µM / fold induction at 5 µM / fold induction at 10 µM / fold induction at 20 µM / fold induction at 40 µM: Mus musculus, Myotube, read-out: Burkin Assay in Myotubes, α7 integrin LacZ reporter signal relative to DMSO
# [3] = test system: β-galactosidase in CMV-LacZ C2C12 myotubes; experiment: CMV-LacZ secondary screen in C2C12 myotubes (β-Gal stabilizing assay); conditions: for CMV-LACZ in Myotubes, signal relative to DMSO / fold induction at 5 µM / fold induction at 10 µM / fold induction at 20 µM / fold induction at 40 µM: C2C12 CMV-LacZ myotubes, fold relative to DMSO; for fold induction at 5 µM / fold induction at 10 µM / fold induction at 20 µM / fold induction at 40 µM: Mus musculus; for fold induction at 5 µM: C2C12, read-out: CMV-LACZ in Myotubes, signal relative to DMSO, 5 uM; for fold induction at 10 µM: C2C12, read-out: CMV-LACZ in Myotubes, signal relative to DMSO, 10 uM; for fold induction at 20 µM: C2C12, read-out: CMV-LACZ in Myotubes, signal relative to DMSO, 20 uM; for fold induction at 40 µM: C2C12, read-out: CMV-LACZ in Myotubes, signal relative to DMSO, 40 uM; for CMV-LACZ in Myotubes (β-galactosidase activity relative to DMSO): CMV-LacZ C2C12 myotubes, 96-well format
# In short: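 β-gal stabilization was measured in C2C12 myoblasts or myotubes stably transfected with a CMV-driven LacZ construct, using the FDG β-gal assay. Compounds were tested in dose-response at 0.5, 1, 5, 10, 20 and 40 μM, with two replicates per point.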
compound,measurement,setting,value
Cl.O=C(CN1CCOCC1)NCc1cc([N+](=O)[O-])ccc1O [MLS001211976-01],"Burkin Assay in Myoblasts, signal relative to DMSO",[1]; 0.5 uM,0.9583
same,"Burkin Assay in Myoblasts, signal relative to DMSO",[1]; 1 uM,0.946
same,"Burkin Assay in Myoblasts, signal relative to DMSO",[1]; 5 uM,0.9018
same,"Burkin Assay in Myoblasts, signal relative to DMSO",[1]; 10 uM,0.9154
same,"Burkin Assay in Myoblasts, signal relative to DMSO",[1]; 20 uM,0.9417
same,"Burkin Assay in Myoblasts, signal relative to DMSO",[1]; 40 uM,0.8952
same,"Burkin Assay in Myotubes, α7 integrin LacZ reporter signal relative to DMSO",[2]; 0.5 uM,1.032
same,"Burkin Assay in Myotubes, α7 integrin LacZ reporter signal relative to DMSO",[2]; 1 uM,1.2336
same,"Burkin Assay in Myotubes, α7 integrin LacZ reporter signal relative to DMSO",[2]; 5 uM,1.241
same,"Burkin Assay in Myotubes, α7 integrin LacZ reporter signal relative to DMSO",[2]; 10 uM,1.199
same,"Burkin Assay in Myotubes, α7 integrin LacZ reporter signal relative to DMSO",[2]; 20 uM,1.099
same,"Burkin Assay in Myotubes, α7 integrin LacZ reporter signal relative to DMSO",[2]; 40 uM,1.1302
same,"CMV-LACZ in Myotubes, signal relative to DMSO",[3]; 5 uM,0.8547
same,"CMV-LACZ in Myotubes, signal relative to DMSO",[3]; 10 uM,0.9979
same,"CMV-LACZ in Myotubes, signal relative to DMSO",[3]; 20 uM,0.9697
same,"CMV-LACZ in Myotubes, signal relative to DMSO",[3]; 40 uM,1.014
COc1ccc(Nc2ncnc3ccc(C)cc23)cc1 [MLS001212498-01],fold induction at 0.5 µM,[1]; 0.5 uM,1.05
same,fold induction at 1 µM,[1]; 1 uM,1.2
same,fold induction at 5 µM,[1]; 5 uM,1.18
same,fold induction at 10 µM,[1]; 10 uM,1.31
same,fold induction at 20 µM,[1]; 20 uM,1.29
same,fold induction at 40 µM,[1]; 40 uM,1.4
same,fold induction at 0.5 µM,[2]; 0.5 uM,0.941
same,fold induction at 1 µM,[2]; 1 uM,1.12
same,fold induction at 5 µM,[2]; 5 uM,1.11
same,fold induction at 10 µM,[2]; 10 uM,1.34
same,fold induction at 20 µM,[2]; 20 uM,1.16
same,fold induction at 40 µM,[2]; 40 uM,1.16
same,fold induction at 5 µM,[3],0.85
same,fold induction at 10 µM,[3],0.784
same,fold induction at 20 µM,[3],0.749
same,fold induction at 40 µM,[3],0.848
COc1ccc(-n2c(C)c(C(C)=O)c3cc(OC(C)=O)ccc32)cc1 [MLS001212998-01],fold induction at 0.5 µM,[1]; 0.5 uM,1.19
same,fold induction at 1 µM,[1]; 1 uM,1.2
same,fold induction at 5 µM,[1]; 5 uM,1.45
same,fold induction at 10 µM,[1]; 10 uM,1.54
same,fold induction at 20 µM,[1]; 20 uM,1.36
same,fold induction at 40 µM,[1]; 40 uM,1.3
same,fold induction at 0.5 µM,[2]; 0.5 uM,1.14
same,fold induction at 1 µM,[2]; 1 uM,1.1
same,fold induction at 5 µM,[2]; 5 uM,1.46
same,fold induction at 10 µM,[2]; 10 uM,1.45
same,fold induction at 20 µM,[2]; 20 uM,1.45
same,fold induction at 40 µM,[2]; 40 uM,1.05
same,fold induction at 5 µM,[3],0.78
same,fold induction at 10 µM,[3],0.908
same,fold induction at 20 µM,[3],0.972
same,fold induction at 40 µM,[3],0.783
NS(=O)(=O)c1ccc(NC(=O)c2cc(-c3ccccc3O)n[nH]2)cc1 [MLS001214443-01],"Burkin Assay in Myoblasts, value relative to DMSO",[1]; 0.5 uM,0.9203
same,"Burkin Assay in Myoblasts, value relative to DMSO",[1]; 1 uM,0.8074
same,"Burkin Assay in Myoblasts, value relative to DMSO",[1]; 5 uM,0.7787
same,"Burkin Assay in Myoblasts, value relative to DMSO",[1]; 10 uM,0.8173
same,"Burkin Assay in Myoblasts, value relative to DMSO",[1]; 20 uM,0.9132
same,"Burkin Assay in Myoblasts, value relative to DMSO",[1]; 40 uM,0.9313
same,Burkin Assay in Myotubes (signal relative to DMSO),[2]; 0.5 uM,0.8262
same,Burkin Assay in Myotubes (signal relative to DMSO),[2]; 1 uM,0.9018
same,Burkin Assay in Myotubes (signal relative to DMSO),[2]; 5 uM,0.9442
same,Burkin Assay in Myotubes (signal relative to DMSO),[2]; 10 uM,1.193
same,Burkin Assay in Myotubes (signal relative to DMSO),[2]; 20 uM,1.154
same,Burkin Assay in Myotubes (signal relative to DMSO),[2]; 40 uM,1.083
same,CMV-LACZ in Myotubes (β-galactosidase activity relative to DMSO),[3]; 5 uM,0.9737
same,CMV-LACZ in Myotubes (β-galactosidase activity relative to DMSO),[3]; 10 uM,1.072
same,CMV-LACZ in Myotubes (β-galactosidase activity relative to DMSO),[3]; 20 uM,0.9507
same,CMV-LACZ in Myotubes (β-galactosidase activity relative to DMSO),[3]; 40 uM,0.9022
